Results from patent US20210393636A1, “TREATMENT OF CNS AND DEVELOPMENTAL DISORDERS USING HIGH DOSE 5-FORMYL-(6S)-TETRAHYDROFOLATE” (priority 2019, published 2021).
Each block holds one compound with its values, some of them ahead of it.

Tests used:
[1] = Total folates in serum 24 h after oral administration of folate forms (Example 2); format: in vivo, rats; set-up: Total Folates in Serum (total 5-MTHF D- and L- plus folic acid): unit not given here; conditions: 4 mg/kg oral, 24 h
Description: (§1) This study evaluated the difference in folate absorption in non-pregnant rats, pregnant rats, pregnant rats injected with a control antibody, and pregnant rats injected with antibody to the folate receptor alpha. Eight (8) rats were assigned to each group for a total of thirty-two (32) rats. Two rats within each group were administered a single oral dose of PGA, 5-methyl-(6S)-THF, folinic acid or 5-formyl-(6S)-THF as a liquid solution and sacrificed at 24-hours to evaluate folate absorption patterns. The total amount of each form of folate administered to each rat was 4 mg/kg.
Serum was withdrawn immediately before the rat was sacrificed. For extraction of folate from serum, an aliquot of the serum was diluted in 3 volumes of phosphate buffer pH 5.5, placed in a boiling water bath for 10 min, cooled, the protein precipitate separated by centrifugation and the clear supernatant was assayed for folate concentration.

[2] = Tissue distribution of folates 24 h after oral administration of folate forms to rat pups, with and without FR Ab (Example 3); format: in vivo; conditions: for Folate (mean), Cerebellum / Folate (mean), Cerebrum / Folate (mean), Kidney / Folate (mean), Liver: PND 21 rat pups, 4 mg/kg oral, 24 h
Description: To determine tissue distribution of orally administered folate forms in young rat pups and study the effect of folate receptor antibodies on this distribution. PND 21 rat pups weighing about 50 g were administered folate forms orally at a dose of 4 mg/kg. Animals were euthanized after 24 h and tissues collected for analyzing total methylfolate in each tissue to provide a measure of normal distribution.

[3] = Tissue distribution of folates 24 h after oral administration of folate forms (Example 2); format: in vivo, rats; conditions: for Total 5-MTHF + PGA in Brain: derived from cortex and cerebellum
Description: as §1
Additional analyses were performed in various tissues of the pregnant and non-pregnant rats. For tissues other than serum, each tissue was collected, weighed and stored at −20 C. For the folate assay each tissue was suspended in 3 volumes of phosphate buffer containing 2% ascorbic acid pH 7.4 and homogenized using a polytron probe. An aliquot of this homogenate was diluted 10 fold in PO4 buffer PH 5.5 containing 0.2% ascorbic acid, in a glass tube, sealed and placed in a boiling water bath for 10 min. The tube was cooled to room temperature, precipitate removed by centrifugation and the clear supernatant assayed for folate. Brain concentrations were derived from cortex and cerebellum.

[4] = Folate absorption in serum after single high-dose oral administration of different folates (Example 1)
Description: For this study, 4 mg/kg folate was administered as a single dose to 250-300 g male Wistar rats. […] For each form of folate 4 time points of 30 min, 1 h, 2 h and 4 h were evaluated. For each time point 2 rats were used. The folate form dissolved in 0.5 ml buffered saline was administered orally using a blunt needle attached to a 1 ml syringe. The rats were euthanized by CO2 inhalation.
Blood was drawn cardiac puncture, allowed to clot for 30 min, serum separated, diluted in equal volume of 4% ascorbate pH 7.2 and kept frozen at −20 C. Folate forms in the serum was determined by HPLC and the peaks were quantified by comparing to known standards as described below.
Folate standards (5-MTHF, FA, THF and Formyl-THF) and 13C-labeled stable isotope internal standards (13C5-5-MTHF, 13C5-FA and 13C-Formyl-THF) were obtained from Schircks Laboratories (Switzerland). Formic acid, ascorbic acid and dithiothreitol (DTT) were obtained from Fluka and Optima LC-MS grade methanol from Fisher Scientific. Stock standards for each folate metabolite and internal standards were prepared as 1 mmol/L solutions in water containing 2 mg/mL ascorbic acid and stored at −80° C. Microtiter plates used for were purchased from NUNC.
Liquid chromatography electrospray ionization mass spectrometry (LC-ESI-MS/MS) analysis of plasma 5-MTHF, FA, THF, Formyl-THF was performed on a Sciex 5500QTRAP mass spectrometer (Foster City, Calif., USA) coupled with a Shimadzu ultra-high pressure Nexera chromatograph system (Kyoto, Japan). The MS/MS experiments were performed under positive electrospray ionization (+ESI) with multiple-reaction monitoring (MRM) using a Turbolon Spray electrospray source operating at a voltage of 5.5 kV and desolvation temperature of 500° C. The calibration curve was prepared in water containing 2 mg/mL ascorbic acid over a range of 12.5-400 nmol/L for each folate analyte.
Sample preparation involved combining 50 µl of blank, standard, control or sample with 10μ1 62.5 mM dithiothreitol, 20 mg/ml ascorbic acid and 2.5 μM 13C5-5-MTHF, 13C5-FA, 13C-Formyl-THF in 1.5 mL Eppendorf tubes, mixed by vortex and incubated for 10 minutes at room temperature in the dark. Next, samples were deproteinized with 5 volumes of methanol containing 2 mg/ml of ascorbic acid and vortexed and centrifuged at 14800 rpm for 10 minutes. Supernatant was loaded in a 96-well microtiter plate for analysis. The samples were analyzed following injection of 10 μL of extract on a Synergi Hydro 4μ 150×3 mm with a 4×2 mm SecurityGuard column (Phenomenex, Calif., USA) maintained at 40° C. (Phenomenex) and eluted in a gradient with buffer A (100% water with 0.1% formic acid) and buffer B (100% Methanol with 0.1% formic acid). The flow rate was 0.5 mL/min, with a gradient over a total run time of 6 min: 0.0-2.0 min, 0-100% B; 2.5 min, 100% B; 2.6-6.0 min, 0% B.
Total analytical analysis, including column re-equilibration, was 6 minutes. Eluent flow from the column was diverted to waste at the beginning and end of each run and was only directed to the source for the period from 1.5-3.5 minutes. The LC-MS/MS data was acquired and processed using Analyst 1.5.2 software (Sciex).
Values reported include both D- and L-forms.

[5] = 25 mg liquid elixir, oral; cited from earlier work
[6] = parenteral 5 mg twice weekly or oral 0.5-20 mg/kg/day; cited from earlier work
[7] = non-pregnant rats, without antibody, 4 mg/kg oral, 24 h
[8] = pregnant rats, + Control IgG, 4 mg/kg oral, 24 h
[9] = pregnant rats, + FRAb, 4 mg/kg oral, 24 h
[10] = pregnant rats, w/o IgG, 4 mg/kg oral, 24 h
[11] = serum, 4 mg/kg single oral dose, 0.5 hr
[12] = serum, 4 mg/kg single oral dose, 1 hr
[13] = serum, 4 mg/kg single oral dose, 2 hr
[14] = serum, 4 mg/kg single oral dose, 4 hr
[15] = male, Wistar, rat, in vivo, po, 4 mg/kg
[16] = male, Wistar, rat, in vivo, po, 4 mg/kg, 0.5 h
[17] = male, Wistar, rat, in vivo, po, 4 mg/kg, 1 h
[18] = male, Wistar, rat, in vivo, po, 4 mg/kg, 2 h
[19] = male, Wistar, rat, in vivo, po, 4 mg/kg, 4 h

Structure (SMILES): CN1c2c(nc(N)[nH]c2=O)NC[C@@H]1CNc1ccc(C(=O)N[C@@H](CCC(=O)O)C(=O)O)cc1 [5-methyl-(6S)-THF, 5-methyl-(6S)-tetrahydrofolate]
Total Folates in Serum (total 5-MTHF D- and L- plus folic acid) ([1]; Non-pregnant rats): 60.0
Total Folates in Serum (total 5-MTHF D- and L- plus folic acid) ([1]; pregnant rats, Control Ab + Form): 143.3
Total Folates in Serum (total 5-MTHF D- and L- plus folic acid) ([1]; pregnant rats, FRAb + Form): 190.9
Total Folates in Serum (total 5-MTHF D- and L- plus folic acid) ([1]; pregnant rats, Form Only): 85.5
Folate (mean), Cerebellum ([2]; + FRAb (100 ug IP 24 h prior)): 60.7 ng/mg
Folate (mean), Cerebrum ([2]; + FRAb (100 ug IP 24 h prior)): 3.8 ng/mg
Folate (mean), Kidney ([2]; + FRAb (100 ug IP 24 h prior)): 116.4 ng/mg
Folate (mean), Liver ([2]; + FRAb (100 ug IP 24 h prior)): 250.34 ng/mg
Folate (mean), Cerebellum ([2]; no FRAb): 26.1 ng/mg
Folate (mean), Cerebrum ([2]; no FRAb): 4.3 ng/mg
Folate (mean), Kidney ([2]; no FRAb): 86.6 ng/mg
Folate (mean), Liver ([2]; no FRAb): 158.5 ng/mg
Total 5-MTHF + PGA in Cerebellum [3, 7]: 1.9
Total 5-MTHF + PGA in Cortex [3, 7]: 1.9
Total 5-MTHF + PGA in Kidney [3, 7]: 36.4
Total 5-MTHF + PGA in Liver [3, 7]: 75.4
Total 5-MTHF + PGA in Ovary [3, 7]: 7.2
Total 5-MTHF + PGA in Brain [3, 7]: 1.9
Total 5-MTHF + PGA in Embryo [3, 8]: 2.0 ng/mg
Total 5-MTHF + PGA in Kidney [3, 8]: 20.3 ng/mg
Total 5-MTHF + PGA in Liver [3, 8]: 148.5 ng/mg
Total 5-MTHF + PGA in Ovary [3, 8]: 14.9 ng/mg
Total 5-MTHF + PGA in Placenta [3, 8]: 2.3 ng/mg
Total 5-MTHF + PGA in Brain [3, 8]: 3.2 ng/mg
Total 5-MTHF + PGA in Embryo [3, 9]: 1.9 ng/mg
Total 5-MTHF + PGA in Kidney [3, 9]: 64.9 ng/mg
Total 5-MTHF + PGA in Liver [3, 9]: 148.0 ng/mg
Total 5-MTHF + PGA in Ovary [3, 9]: 27.0 ng/mg
Total 5-MTHF + PGA in Placenta [3, 9]: 2.1 ng/mg
Total 5-MTHF + PGA in Brain [3, 9]: 3.7 ng/mg
Total 5-MTHF + PGA in Embryo [3, 10]: 4.6 ng/mg
Total 5-MTHF + PGA in Kidney [3, 10]: 25.5 ng/mg
Total 5-MTHF + PGA in Liver [3, 10]: 58.6 ng/mg
Total 5-MTHF + PGA in Ovary [3, 10]: 6.6 ng/mg
Total 5-MTHF + PGA in Placenta [3, 10]: 6.4 ng/mg
Total 5-MTHF + PGA in Brain [3, 10]: 2.4 ng/mg
THF [4, 11]: 4.4 ng/mL
Total Uptake [4, 11]: 188.5 ng/mL
5-MTHF ([4]; serum, 4 mg/kg single oral dose, 0.5 hr, D- and L-forms): 184.1 ng/mL
THF [4, 12]: 9.0 ng/mL
Total Uptake [4, 12]: 223.8 ng/mL
5-MTHF ([4]; serum, 4 mg/kg single oral dose, 1 hr, D- and L-forms): 214.8 ng/mL
THF [4, 13]: 8.7 ng/mL
Total Uptake [4, 13]: 258.4 ng/mL
5-MTHF ([4]; serum, 4 mg/kg single oral dose, 2 hr, D- and L-forms): 249.7 ng/mL
5-FoTHF [4, 14]: 5.1 ng/mL
THF [4, 14]: 19.6 ng/mL
Total Uptake [4, 14]: 216.2 ng/mL
5-MTHF ([4]; serum, 4 mg/kg single oral dose, 4 hr, D- and L-forms): 191.4 ng/mL

tissue uptake of the unnatural D-isomer in ovary, brain, cerebellum and cortex ([3]; non-pregnant rats without folate receptor antibody): significant
concentration at 0.5 h [4, 15]: 80.1 ng/mL
concentration at 1 h [4, 15]: 55.9 ng/mL
concentration at 2 h [4, 15]: 27.5 ng/mL
concentration at 4 h [4, 15]: 21.7 ng/mL
5-MTHF [4, 16]: 109.7 ng/mL
THF [4, 16]: 5.5 ng/mL
Total Uptake [4, 16]: 195.3 ng/mL
5-MTHF [4, 17]: 115.7 ng/mL
THF [4, 17]: 5.9 ng/mL
Total Uptake [4, 17]: 177.4 ng/mL
5-MTHF [4, 18]: 103.3 ng/mL
THF [4, 18]: 5.1 ng/mL
Total Uptake [4, 18]: 135.9 ng/mL
5-MTHF [4, 19]: 120.7 ng/mL
THF [4, 19]: 7.2 ng/mL
Total Uptake [4, 19]: 149.6 ng/mL
THF concentration relative to an equal dose of 5-formyl-6S-THF ([4]; rat, in vivo, po, 4 mg/kg): less than one fifth
Structure (SMILES): Nc1nc2c(c(=O)[nH]1)N(C=O)C(CNc1ccc(C(=O)N[C@@H](CCC(=O)O)C(=O)O)cc1)CN2 (stereo partly drawn) [Folinic acid, 5-formyl-tetrahydrofolate]
change of folates in the brain on antibody administration ([2]; antibody-treated pups vs pups without antibody): an increase in folates in the brain is observed
AUC0-24h, 5-Formyl-THF (Strep. faecalis activity) [5]: 135 ± 80 ng·h/mL
AUC0-24h, 5-Methyl-THF (arithmetic difference) [5]: 1929 ± 542 ng·h/mL
AUC0-24h, Total folates (l-casei activity) [5]: 2063 ± 587 ng·h/mL
AUC0-inf, 5-Formyl-THF (Strep. faecalis activity) [5]: 140 ± 81 ng·h/mL
AUC0-inf, 5-Methyl-THF (arithmetic difference) [5]: 2012 ± 567 ng·h/mL
AUC0-inf, Total folates (l-casei activity) [5]: 2149 ± 612 ng·h/mL
Cmax, 5-Formyl-THF (Strep. faecalis activity) [5]: 51 ± 50 ng/mL
Cmax, 5-Methyl-THF (arithmetic difference) [5]: 367 ± 87 ng/mL
Cmax, Total folates (l-casei activity) [5]: 393 ± 96 ng/mL
t1/2, 5-Formyl-THF (Strep. faecalis activity) [5]: 9.5 ± 4.6 h
t1/2, 5-Methyl-THF (arithmetic difference) [5]: 6.0 ± 1.9 h
t1/2, Total folates (l-casei activity) [5]: 6.0 ± 1.9 h
tmax, 5-Formyl-THF (Strep. faecalis activity) [5]: 1.22 ± 0.583 h
tmax, 5-Methyl-THF (arithmetic difference) [5]: 2.37 ± 0.483 h
tmax, Total folates (l-casei activity) [5]: 2.33 ± 0.533 h
tolerability [6]: tolerated
